Molecules are shown by their SMILES.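 Dose response: 5 concentrations. Exposure: 48 h. Format: 96-well plates. Endpoint: linear interpolation; highest concentration if not reached. Here, GI50 denotes the concentration required for 50% inhibition of growth.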 Calls of active or inactive are those of the source. Rule as the data show it: active = GI50 up to about 1.1 µM and inactive = higher.

These results are taken from ChEMBL document CHEMBL1201862, “PubChem BioAssay data set” (2004).

Some test systems named below: SR; HOP-62; UO-31; SK-OV-3; DU-145; RPMI-8226; MOLT-4; CCRF-CEM; OVCAR-4; 786-0; MDA-MB-435; BT-549; SF-268; UACC-257; EKVX; MDA-MB-231; NCI-H23; Malme-3M; SK-MEL-28; HCC 2998.
Common to all, as to experiment: NCI tumour cell line growth inhibition, 48 h

Consider `CC(C)=CCC1=C(OCC(=O)O)C(=O)c2ccccc2C1=O`, for which the GI50 is 34.3 µM (inactive) with SR; 40.9 µM (inactive) in the experiment with HOP-62; 28 µM (inactive) in the experiment on UO-31; 67.9 µM (inactive) in the experiment with SK-OV-3; 33.5 µM (inactive) in the experiment on DU-145; 24.1 µM (inactive) with RPMI-8226. The GI50 is 15.9 µM (inactive) in the experiment on MOLT-4; 23.9 µM (inactive) with CCRF-CEM; 31.9 µM (inactive) with OVCAR-4; 41.1 µM (inactive) in the experiment with 786-0; 15.5 µM (inactive) with MDA-MB-435; 29.9 µM (inactive) in the experiment with BT-549. For the same compound, the GI50 was 22.3 µM (inactive) in the experiment on SF-268; 29.1 µM (inactive) in the experiment with UACC-257; 37.1 µM (inactive) in the experiment on EKVX; 49.8 µM (inactive) in the experiment with MDA-MB-231; 33 µM (inactive) with NCI-H23; 19.3 µM (inactive) with Malme-3M. For the same compound, the GI50 with SK-MEL-28 was 35 µM (inactive).

As to `O=c1[nH]cnc2c1sc1nc3ccccc3n12`, the GI50 with HOP-62 is > 100 µM (inactive); in the experiment with UO-31 it was 42.3 µM (inactive); in the experiment on SK-OV-3 it was 58.1 µM (inactive); in the experiment with DU-145 it was > 100 µM (inactive); in the experiment on RPMI-8226 it was > 100 µM (inactive); in the experiment on MOLT-4 it was 90.6 µM (inactive). Moreover, the GI50 was 55.6 µM (inactive) with CCRF-CEM; > 100 µM (inactive) in the experiment on OVCAR-4; 67.5 µM (inactive) with 786-0; > 100 µM (inactive) in the experiment on MDA-MB-435; > 100 µM (inactive) in the experiment with BT-549; > 100 µM (inactive) in the experiment on SF-268. The GI50 was > 100 µM (inactive) in the experiment with UACC-257; > 100 µM (inactive) in the experiment with EKVX; > 100 µM (inactive) in the experiment on MDA-MB-231; 73.3 µM (inactive) in the experiment with HCC 2998; > 100 µM (inactive) with NCI-H23; > 100 µM (inactive) in the experiment with Malme-3M. For the same compound, in the experiment with SK-MEL-28, the GI50 is > 100 µM (inactive).

Take `COc1cc([C@@H]2c3cc4c(cc3[C@@H](c3c(O)cc(O)c5c3O[C@H](c3ccc(O)c(O)c3)[C@H](OC(=O)c3cc(O)c(O)c(O)c3)C5)[C@H]3COC(=O)[C@H]23)OCO4)cc(OC)c1O`: the GI50 was 51.8 µM (inactive) in the experiment on HOP-62; 44.1 µM (inactive) with SK-OV-3; 32 µM (inactive) in the experiment on DU-145; 26.6 µM (inactive) in the experiment on RPMI-8226; 33.7 µM (inactive) in the experiment on MOLT-4; 24.4 µM (inactive) in the experiment with CCRF-CEM. For the same compound, the GI50 was > 100 µM (inactive) in the experiment on OVCAR-4; 22.5 µM (inactive) in the experiment on 786-0; 22.6 µM (inactive) in the experiment with MDA-MB-435; > 100 µM (inactive) with BT-549; 30.8 µM (inactive) in the experiment on SF-268; > 100 µM (inactive) in the experiment on UACC-257. The GI50 was 44.7 µM (inactive) in the experiment on EKVX; 57.8 µM (inactive) in the experiment on MDA-MB-231; 33.8 µM (inactive) with HCC 2998; 69.2 µM (inactive) with NCI-H23; > 100 µM (inactive) in the experiment on Malme-3M; 79.8 µM (inactive) in the experiment on SK-MEL-28.

`COc1nc2ncc([C@@H](OC(C)=O)[C@@H](COC(C)=O)OC(C)=O)nc2c(=O)n1C`: the GI50 is > 100 µM (inactive) in the experiment with SR; > 100 µM (inactive) with HOP-62; > 100 µM (inactive) with UO-31; > 100 µM (inactive) with SK-OV-3; > 100 µM (inactive) in the experiment with DU-145; 96.8 µM (inactive) with RPMI-8226. Further, the GI50 with MOLT-4 is > 100 µM (inactive); with CCRF-CEM, 58.1 µM (inactive); in the experiment on OVCAR-4, 48 µM (inactive); in the experiment with 786-0, > 100 µM (inactive); in the experiment with MDA-MB-435, > 100 µM (inactive); with BT-549, > 100 µM (inactive). The GI50 in the experiment on SF-268, with UACC-257, with EKVX, in the experiment on MDA-MB-231, in the experiment with Malme-3M and in the experiment with SK-MEL-28 was > 100 µM (inactive) in each case.

With `Cc1cc(NS(=O)(=O)c2ccc(/N=[N+](\[O-])c3ccc(S(=O)(=O)Nc4cc(C)on4)cc3)cc2)no1`, the GI50 in the experiment with SR, in the experiment on HOP-62, in the experiment on UO-31, in the experiment on SK-OV-3, with DU-145 and with RPMI-8226 was > 100 µM (inactive) each time. Further, the GI50 with MOLT-4, in the experiment on CCRF-CEM, in the experiment on OVCAR-4, in the experiment with 786-0, with MDA-MB-435 and in the experiment with BT-549 was > 100 µM (inactive) in each case. In addition, the GI50 with SF-268, with UACC-257, with EKVX, in the experiment with MDA-MB-231, in the experiment with NCI-H23 and in the experiment with Malme-3M was > 100 µM (inactive) each time.

Regarding `S=C(N/N=C/c1ccccn1)N1CC2CCC(CC2)C1`, the GI50 in the experiment on HOP-62 is < 0.01 µM (active); in the experiment on UO-31, < 0.0111 µM (active); in the experiment with SK-OV-3, < 0.01 µM (active); in the experiment on DU-145 it was 0.0471 µM (active); in the experiment with RPMI-8226, < 0.01 µM (active); with MOLT-4, < 0.01 µM (active). Besides, the GI50 in the experiment with CCRF-CEM is < 0.01 µM (active); in the experiment with OVCAR-4 it was 0.0308 µM (active); with 786-0, < 0.01 µM (active); with MDA-MB-435, 0.0404 µM (active); with BT-549, < 0.01 µM (active); with SF-268, 0.0301 µM (active). For the same compound, the GI50 in the experiment with UACC-257 was < 0.01 µM (active); with EKVX it was < 0.0395 µM (active); with MDA-MB-231 it was < 0.01 µM (active); with HCC 2998, 0.0895 µM (active); with NCI-H23, < 0.01 µM (active); in the experiment on Malme-3M, < 0.047 µM (active). Moreover, the GI50 in the experiment on SK-MEL-28 is 0.0559 µM (active).

Consider `COC(=O)C1c2c(c3ccccc3n2C(=O)OC)CCN2CCC1C(S(=O)(=O)c1ccccc1)C2=O` (stereo not given), for which the GI50 with SR is 87.7 µM (inactive); in the experiment with HOP-62 it was 70.3 µM (inactive); with UO-31, > 100 µM (inactive); with SK-OV-3 it was > 100 µM (inactive); with DU-145, > 100 µM (inactive); in the experiment on RPMI-8226, 30.6 µM (inactive). Moreover, the GI50 with MOLT-4 was 40.5 µM (inactive); with CCRF-CEM it was > 100 µM (inactive); with 786-0 it was > 100 µM (inactive); in the experiment with MDA-MB-435, > 100 µM (inactive); in the experiment with BT-549, > 100 µM (inactive); in the experiment with SF-268 it was > 100 µM (inactive). Besides, the GI50 in the experiment with UACC-257, in the experiment with EKVX, in the experiment with MDA-MB-231, in the experiment with NCI-H23, with Malme-3M and in the experiment with SK-MEL-28 was > 100 µM (inactive) in each case.

As for `COC(=O)/C=C1\SC2(O\C1=N/c1ccccc1)C1CC3CC(C1)CC2C3` (stereo not given), the GI50 in the experiment on SR was > 100 µM (inactive); in the experiment on HOP-62, > 100 µM (inactive); in the experiment with UO-31, > 100 µM (inactive); in the experiment on SK-OV-3, > 100 µM (inactive); with DU-145 it was > 10 µM (inactive); in the experiment with RPMI-8226, > 100 µM (inactive). Moreover, the GI50 in the experiment on MOLT-4 is > 100 µM (inactive); in the experiment with CCRF-CEM, > 100 µM (inactive); with OVCAR-4 it was 36.1 µM (inactive); in the experiment with MDA-MB-435, > 100 µM (inactive); with BT-549, > 100 µM (inactive); in the experiment with UACC-257, > 100 µM (inactive). For the same compound, the GI50 with EKVX, in the experiment on MDA-MB-231 and in the experiment with SK-MEL-28 was > 100 µM (inactive) each time.

With `COc1cc(C(=O)Nc2cc(C(N)=O)cc(OC)c2OC)cc(NC(=O)/C=C/c2ccccc2)c1OC`, the GI50 with SR is 20.4 µM (inactive); with UO-31, > 100 µM (inactive); in the experiment on SK-OV-3, > 100 µM (inactive); with DU-145 it was > 100 µM (inactive); with RPMI-8226, 44 µM (inactive); in the experiment with MOLT-4 it was 52.4 µM (inactive). The GI50 with CCRF-CEM is 55.5 µM (inactive); in the experiment with OVCAR-4 it was > 100 µM (inactive); in the experiment with MDA-MB-435, > 100 µM (inactive); with BT-549, > 100 µM (inactive); in the experiment on UACC-257 it was > 100 µM (inactive); with EKVX, > 100 µM (inactive). Moreover, the GI50 is 20 µM (inactive) in the experiment with MDA-MB-231, > 100 µM (inactive) with NCI-H23, 2.63 µM (inactive) with Malme-3M and > 100 µM (inactive) in the experiment on SK-MEL-28.

Turning to `CC1=[N+]([O-])C(C)(C)N(N=O)C1(C)C`, the GI50 in the experiment with HOP-62, with UO-31, in the experiment with DU-145, with RPMI-8226, with MOLT-4 and with CCRF-CEM was > 10 µM (inactive) each time. In addition, the GI50 in the experiment with OVCAR-4, in the experiment on 786-0, with MDA-MB-435, with BT-549, in the experiment on SF-268 and with UACC-257 was > 10 µM (inactive) in each case. The GI50 in the experiment on EKVX, with MDA-MB-231, with HCC 2998, with NCI-H23 and in the experiment on Malme-3M was > 10 µM (inactive) throughout.

Turning to `CCc1nc(N)nc(N)c1-c1ccc(Cl)c([N+]#N)c1`, the GI50 in the experiment on SR was 22.9 µM (inactive); with HOP-62, 82 µM (inactive); in the experiment with UO-31, 78.3 µM (inactive); with SK-OV-3, > 100 µM (inactive); in the experiment on DU-145 it was 80.2 µM (inactive); in the experiment on RPMI-8226, 0.564 µM (active). Further, the GI50 was 23.1 µM (inactive) in the experiment with MOLT-4; > 100 µM (inactive) in the experiment with OVCAR-4; 48.2 µM (inactive) in the experiment on 786-0; 38.7 µM (inactive) with MDA-MB-435; > 100 µM (inactive) in the experiment on BT-549; > 100 µM (inactive) in the experiment with SF-268. Further, the GI50 in the experiment on UACC-257 is > 100 µM (inactive); with EKVX it was > 100 µM (inactive); in the experiment with MDA-MB-231 it was > 100 µM (inactive); in the experiment on NCI-H23 it was 28.5 µM (inactive); in the experiment on Malme-3M, > 100 µM (inactive); in the experiment with SK-MEL-28, > 100 µM (inactive).
